Measurements: patent US10501461B2, “Tyrosine amide derivatives as Rho-kinase inhibitors” (CHIESI FARMACEUTICI S.P.A., priority 2017, dated 2019)

Experiments:
Rho kinase 1 (ROCK-I) = Rho kinase 1 (ROCK-I) (Homo sapiens, UniProt Q13464); test: In vitro Rho kinase inhibitory activity assay (ADP-Glo), Rho kinase 1; type: biochemical; details: 10 μM ATP, 25° C., expressed as range of activity
Summary of the method: (§1)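 ADP-Glo luminescence assay at 25 °C in 40 mM Tris pH 7.5, 20 mM MgCl2, 0.1 mg/ml BSA, 50 μM DTT, with 2.5 μM myelin basic protein, 10 μM ATP and 1% DMSO. Compound and ROCK1 or ROCK2 were preincubated 30 min, then reacted 1 h. IC50 came from a sigmoidal fit; Ki via Cheng-Prusoff.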

Rho kinase 2 (ROCK-II) = Rho kinase 2 (ROCK-II) (Homo sapiens, UniProt O75116); test: In vitro Rho kinase inhibitory activity assay (ADP-Glo), Rho kinase 2; type: biochemical; details: 10 μM ATP, 25° C., expressed as range of activity
Chain of Rho kinase 2 (ROCK-II) (O75116 whole entry): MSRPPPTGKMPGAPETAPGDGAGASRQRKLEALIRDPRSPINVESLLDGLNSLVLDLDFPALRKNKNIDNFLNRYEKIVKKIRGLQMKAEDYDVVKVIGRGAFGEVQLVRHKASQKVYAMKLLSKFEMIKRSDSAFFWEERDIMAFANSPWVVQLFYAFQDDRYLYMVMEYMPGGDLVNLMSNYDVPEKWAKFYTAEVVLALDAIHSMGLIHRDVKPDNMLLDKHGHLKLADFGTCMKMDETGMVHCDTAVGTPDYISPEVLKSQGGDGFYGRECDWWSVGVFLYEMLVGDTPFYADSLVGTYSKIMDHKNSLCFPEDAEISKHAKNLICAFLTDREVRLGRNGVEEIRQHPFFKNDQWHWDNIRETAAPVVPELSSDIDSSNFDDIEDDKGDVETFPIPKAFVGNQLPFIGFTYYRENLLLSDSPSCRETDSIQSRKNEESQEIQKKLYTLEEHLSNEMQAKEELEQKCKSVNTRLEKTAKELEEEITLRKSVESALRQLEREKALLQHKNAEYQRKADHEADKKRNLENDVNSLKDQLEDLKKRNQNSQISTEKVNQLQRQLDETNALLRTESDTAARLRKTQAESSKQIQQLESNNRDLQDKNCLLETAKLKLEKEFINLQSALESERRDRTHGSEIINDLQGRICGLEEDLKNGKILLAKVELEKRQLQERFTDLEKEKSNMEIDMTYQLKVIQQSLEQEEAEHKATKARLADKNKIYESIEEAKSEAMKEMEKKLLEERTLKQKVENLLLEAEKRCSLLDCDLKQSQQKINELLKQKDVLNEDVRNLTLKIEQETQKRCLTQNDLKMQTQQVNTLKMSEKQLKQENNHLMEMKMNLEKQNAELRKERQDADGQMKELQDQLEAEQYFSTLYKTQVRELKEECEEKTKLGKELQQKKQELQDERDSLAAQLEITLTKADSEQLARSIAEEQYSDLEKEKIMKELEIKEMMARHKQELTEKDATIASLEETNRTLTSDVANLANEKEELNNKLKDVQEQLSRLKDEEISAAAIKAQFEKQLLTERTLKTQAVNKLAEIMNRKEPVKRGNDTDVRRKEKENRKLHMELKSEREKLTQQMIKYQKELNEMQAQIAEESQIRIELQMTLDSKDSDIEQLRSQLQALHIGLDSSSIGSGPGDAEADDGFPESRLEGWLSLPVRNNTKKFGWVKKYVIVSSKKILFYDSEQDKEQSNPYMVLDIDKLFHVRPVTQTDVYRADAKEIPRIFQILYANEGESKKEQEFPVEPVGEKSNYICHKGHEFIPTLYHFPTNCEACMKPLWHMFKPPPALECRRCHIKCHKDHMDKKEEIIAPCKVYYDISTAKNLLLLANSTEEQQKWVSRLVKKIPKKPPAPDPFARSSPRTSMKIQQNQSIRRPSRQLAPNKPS
Summary of the method: as §1

Chain of Rho kinase 1 (ROCK-I) (Q13464 whole entry): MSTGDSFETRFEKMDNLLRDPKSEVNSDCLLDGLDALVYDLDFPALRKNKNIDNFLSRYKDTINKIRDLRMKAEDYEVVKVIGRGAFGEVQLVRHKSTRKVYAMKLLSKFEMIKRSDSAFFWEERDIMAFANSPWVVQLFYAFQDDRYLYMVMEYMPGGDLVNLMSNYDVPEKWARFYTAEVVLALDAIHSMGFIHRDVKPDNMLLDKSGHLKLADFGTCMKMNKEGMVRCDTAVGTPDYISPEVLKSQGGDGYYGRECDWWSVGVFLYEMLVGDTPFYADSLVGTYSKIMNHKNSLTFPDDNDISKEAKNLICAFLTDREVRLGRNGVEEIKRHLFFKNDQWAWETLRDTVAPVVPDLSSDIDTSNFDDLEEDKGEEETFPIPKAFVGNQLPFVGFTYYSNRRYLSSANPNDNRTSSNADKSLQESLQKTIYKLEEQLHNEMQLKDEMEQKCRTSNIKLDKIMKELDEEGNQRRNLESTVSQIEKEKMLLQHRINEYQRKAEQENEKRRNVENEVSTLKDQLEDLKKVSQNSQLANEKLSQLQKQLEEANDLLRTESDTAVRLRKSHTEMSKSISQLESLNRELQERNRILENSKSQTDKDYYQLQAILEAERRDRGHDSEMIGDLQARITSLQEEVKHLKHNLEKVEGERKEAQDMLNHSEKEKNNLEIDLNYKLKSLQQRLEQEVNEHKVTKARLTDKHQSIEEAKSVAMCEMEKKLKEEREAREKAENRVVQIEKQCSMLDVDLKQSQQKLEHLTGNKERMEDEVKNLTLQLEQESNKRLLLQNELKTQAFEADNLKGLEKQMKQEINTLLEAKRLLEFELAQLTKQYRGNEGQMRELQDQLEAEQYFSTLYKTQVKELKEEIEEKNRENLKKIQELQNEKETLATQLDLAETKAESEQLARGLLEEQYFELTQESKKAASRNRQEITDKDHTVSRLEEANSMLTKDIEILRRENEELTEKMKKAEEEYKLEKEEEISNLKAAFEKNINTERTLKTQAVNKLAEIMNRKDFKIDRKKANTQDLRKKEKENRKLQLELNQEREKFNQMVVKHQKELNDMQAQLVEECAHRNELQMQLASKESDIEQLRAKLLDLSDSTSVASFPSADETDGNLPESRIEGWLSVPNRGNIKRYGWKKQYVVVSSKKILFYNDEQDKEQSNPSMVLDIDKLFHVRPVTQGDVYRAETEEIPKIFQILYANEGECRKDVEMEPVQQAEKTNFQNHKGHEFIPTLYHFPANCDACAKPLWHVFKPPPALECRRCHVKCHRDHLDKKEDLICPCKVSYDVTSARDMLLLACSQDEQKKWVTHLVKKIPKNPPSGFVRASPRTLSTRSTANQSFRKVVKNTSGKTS

Ki (Rho kinase 1 (ROCK-I)) [nM]	Ki (Rho kinase 2 (ROCK-II)) [nM]	Compound
< 3	< 3	Cc1c[nH]c2nccc(Oc3ccc(C[C@H](N)C(=O)N4C[C@@H]5C[C@H]4CN5Cc4ccccc4)cc3F)c12 [Example 24, (S)-2-amino-1-((1S,4S)-5-benzyl-2,5-diazabicyclo[2.2.1]heptan-2-yl)-3-(3-fluoro-4-((3-methyl-1H-pyrrolo[2,3-b]pyridin-4-yl)oxy)phenyl)propan-1-one]
< 3	< 3	CN1CCC(NC(=O)[C@@H](N)Cc2ccc(Oc3ccnc4[nH]cc(-c5cncs5)c34)c(F)c2)CC1 [Example 205, (S)-2-amino-3-(3-fluoro-4-((3-(thiazol-5-yl)-1H-pyrrolo[2,3-b]pyridin-4-yl)oxy)phenyl)-N-(1-methylpiperidin-4-yl)propanamide]
< 3	< 3	Cc1c[nH]c2nccc(Oc3ccc(C[C@H](N)C(=O)NCc4ccccc4)cc3)c12 [Example 135, (S)-2-amino-N-benzyl-3-(4-((3-methyl-1H-pyrrolo[2,3-b]pyridin-4-yl)oxy)phenyl)propanamide]
< 3	< 3	Cc1c[nH]c2nccc(Oc3ccc(CC(N)C(=O)NCCc4ccccn4)cc3F)c12 (centres unmarked) [Example 69, 2-amino-3-(3-fluoro-4-((3-methyl-1H-pyrrolo[2,3-b]pyridin-4-yl)oxy)phenyl)-N-(2-(pyridin-2-yl)ethyl)propanamide]
< 3	< 3	Cc1c[nH]c2nccc(Oc3ccc(CC(N)C(=O)N4CCCCC4)cc3F)c12 (centres unmarked) [Example 77, 2-amino-3-(3-fluoro-4-((3-methyl-1H-pyrrolo[2,3-b]pyridin-4-yl)oxy)phenyl)-1-(piperidin-1-yl)propan-1-one]
3 to 30	3 to 30	CN1CCC(NC(=O)[C@@H](N)Cc2ccc(Oc3ccnc4[nH]ccc34)cc2)CC1 [Example 103, (S)-3-(4-((1H-pyrrolo[2,3-b]pyridin-4-yl)oxy)phenyl)-2-amino-N-(1-methylpiperidin-4-yl)propanamide]
< 3	< 3	Cc1c[nH]c2nccc(Oc3ccc(C[C@H](N)C(=O)N4CCN(C(=O)c5ccc(CN(C)C)cc5)CC4)cc3F)c12 [Example 172, (S)-2-amino-1-(4-(4-((dimethylamino)methyl)benzoyl)piperazin-1-yl)-3-(3-fluoro-4-((3-methyl-1H-pyrrolo[2,3-b]pyridin-4-yl)oxy)phenyl)propan-1-one]
< 3	< 3	Cc1c[nH]c2nccc(Oc3ccc(C[C@H](N)C(=O)NC4CCN(C)CC4)cc3F)c12 [Example 1, (S)-2-amino-3-(3-fluoro-4-((3-methyl-1H-pyrrolo[2,3-b]pyridin-4-yl)oxy)phenyl)-N-(1-methylpiperidin-4-yl)propanamide]
< 3	< 3	Cc1c[nH]c2nccc(Oc3ccc(C[C@H](N)C(=O)N4CC=C(c5ccccc5)CC4)cc3F)c12 [Example 21, (S)-2-amino-3-(3-fluoro-4-((3-methyl-1H-pyrrolo[2,3-b]pyridin-4-yl)oxy)phenyl)-1-(4-phenyl-5,6-dihydropyridin-1(2H)-yl)propan-1-one]
< 3	< 3	Cc1c[nH]c2nccc(Oc3ccc(CC(N)C(=O)N4CCN(CC5CC5)CC4)cc3F)c12 (centres unmarked) [Example 58, 2-amino-1-(4-(cyclopropylmethyl)piperazin-1-yl)-3-(3-fluoro-4-((3-methyl-1H-pyrrolo[2,3-b]pyridin-4-yl)oxy)phenyl)propan-1-one]
< 3	< 3	CNC(=O)c1ccc(CN2CCN(C(=O)[C@@H](N)Cc3ccc(Oc4ccnc5[nH]cc(C)c45)c(F)c3)CC2)o1 [Example 166, (S)-5-((4-(2-amino-3-(3-fluoro-4-((3-methyl-1H-pyrrolo[2,3-b]pyridin-4-yl)oxy)phenyl)propanoyl)piperazin-1-yl)methyl)-N-methylfuran-2-carboxamide]
3 to 30	< 3	Cc1c[nH]c2ncnc(Oc3ccc(C[C@H](N)C(=O)N4CCC(c5ccncc5)CC4)cc3F)c12 [Example 122, (S)-2-amino-3-(3-fluoro-4-((5-methyl-7H-pyrrolo[2,3-d]pyrimidin-4-yl)oxy)phenyl)-1-(4-(pyridin-4-yl)piperidin-1-yl)propan-1-one]
< 3	< 3	Cc1c[nH]c2nccc(Oc3ccc(C[C@H](N)C(=O)N4CCN(Cc5cccnc5)CC4)cc3F)c12 [Example 28, (S)-2-amino-3-(3-fluoro-4-((3-methyl-1H-pyrrolo[2,3-b]pyridin-4-yl)oxy)phenyl)-1-(4-(pyridin-3-ylmethyl)piperazin-1-yl)propan-1-one]
> 30	> 30	CN(Cc1ccccc1)C(=O)[C@H](N)Cc1ccc(Oc2ccnc3[nH]ccc23)cc1 [Example 144, (R)-3-(4-((1H-pyrrolo[2,3-b]pyridin-4-yl)oxy)phenyl)-2-amino-N-benzyl-N-methylpropanamide]
< 3	< 3	Cc1c[nH]c2nccc(Oc3ccc(C[C@H](N)C(=O)N4CCN5CCOCC5C4)cc3F)c12 (stereo partly drawn) [Example 16, (2S)-2-amino-3-(3-fluoro-4-((3-methyl-1H-pyrrolo[2,3-b]pyridin-4-yl)oxy)phenyl)-1-(hexahydropyrazino[2,1-c][1,4]oxazin-8(1H)-yl)propan-1-one]
< 3	< 3	N[C@@H](Cc1ccc(Oc2ccnc3[nH]cc(-c4ccc(O)cc4)c23)cc1)C(=O)NCCc1ccncc1 [Example 206, (S)-2-amino-3-(4-((3-(4-hydroxyphenyl)-1H-pyrrolo[2,3-b]pyridin-4-yl)oxy)phenyl)-N-(2-(pyridin-4-yl)ethyl)propanamide]
3 to 30	3 to 30	CN(CC1CCCCC1)C(=O)[C@@H](N)Cc1ccc(Oc2ccnc3[nH]ccc23)cc1 [Example 92, (S)-3-(4-((1H-pyrrolo[2,3-b]pyridin-4-yl)oxy)phenyl)-2-amino-N-(cyclohexylmethyl)-N-methylpropanamide]
< 3	< 3	Cc1c[nH]c2nccc(Oc3ccc(C[C@H](N)C(=O)N4CCN(Cc5cnccn5)CC4)cc3F)c12 [Example 155, (S)-2-amino-3-(3-fluoro-4-((3-methyl-1H-pyrrolo[2,3-b]pyridin-4-yl)oxy)phenyl)-1-(4-(pyrazin-2-ylmethyl)piperazin-1-yl)propan-1-one]
< 3	< 3	Cc1c[nH]c2nccc(Oc3ccc(C[C@H](N)C(=O)N4CCN(C(=O)C5CCCCC5)CC4)cc3F)c12 [Example 168, (S)-2-amino-1-(4-(cyclohexanecarbonyl)piperazin-1-yl)-3-(3-fluoro-4-((3-methyl-1H-pyrrolo[2,3-b]pyridin-4-yl)oxy)phenyl)propan-1-one]
< 3	< 3	N[C@@H](Cc1ccc(Oc2ccnc3[nH]cc(C4=CCOC4)c23)cc1)C(=O)N1CCN(Cc2ccccc2)CC1 [Example 201, (S)-2-amino-1-(4-benzylpiperazin-1-yl)-3-(4-((3-(2,5-dihydrofuran-3-yl)-1H-pyrrolo[2,3-b]pyridin-4-yl)oxy)phenyl)propan-1-one]
< 3	< 3	Cc1c[nH]c2nccc(Oc3ccc(C[C@H](N)C(=O)Nc4ccccc4)cc3)c12 [Example 137, (S)-2-amino-3-(4-((3-methyl-1H-pyrrolo[2,3-b]pyridin-4-yl)oxy)phenyl)-N-phenylpropanamide]
3 to 30	3 to 30	Cc1c[nH]c2nccc(Oc3ccc(CC(N)C(=O)N4CCCC4c4ccccc4)cc3F)c12 (single isomer, unassigned) [Example 85, 2-amino-3-(3-fluoro-4-((3-methyl-1H-pyrrolo[2,3-b]pyridin-4-yl)oxy)phenyl)-1-(2-phenylpyrrolidin-1-yl)propan-1-one]
< 3	< 3	Cc1c[nH]c2nccc(Oc3ccc(C[C@H](N)C(=O)N4CC[C@H](N(C)C)C4)cc3F)c12 [Example 49, (S)-2-amino-1-((S)-3-(dimethylamino)pyrrolidin-1-yl)-3-(3-fluoro-4-((3-methyl-1H-pyrrolo[2,3-b]pyridin-4-yl)oxy)phenyl)propan-1-one]
< 3	< 3	N[C@@H](Cc1ccc(Oc2ccnc3[nH]cc(F)c23)cc1)C(=O)N1CCN(Cc2ccccc2)CC1 [Example 114, (S)-2-amino-1-(4-benzylpiperazin-1-yl)-3-(4-((3-fluoro-1H-pyrrolo[2,3-b]pyridin-4-yl)oxy)phenyl)propan-1-one]
< 3	< 3	Cc1c[nH]c2nccc(Oc3ccc(C[C@H](N)C(=O)N4CCN(CC5CCN(S(C)(=O)=O)CC5)CC4)cc3F)c12 [Example 161, (S)-2-amino-3-(3-fluoro-4-((3-methyl-1H-pyrrolo[2,3-b]pyridin-4-yl)oxy)phenyl)-1-(4-((1-(methylsulfonyl)piperidin-4-yl)methyl)piperazin-1-yl)propan-1-one]
< 3	< 3	COc1ccc(CN2CCN(C(=O)C(N)Cc3ccc(Oc4ccnc5[nH]cc(C)c45)c(F)c3)CC2)cc1 (centres unmarked) [Example 75, 2-amino-3-(3-fluoro-4-((3-methyl-1H-pyrrolo[2,3-b]pyridin-4-yl)oxy)phenyl)-1-(4-(4-methoxybenzyl)piperazin-1-yl)propan-1-one]
< 3	< 3	NC(Cc1ccc(Oc2ccnc3[nH]ccc23)cc1)C(=O)Nc1ccc(C(F)(F)F)cc1 (single isomer, unassigned) [Example 91A, 3-(4-((1H-pyrrolo[2,3-b]pyridin-4-yl)oxy)phenyl)-2-amino-N-(4-(trifluoromethyl)phenyl)propanamide]
< 3	< 3	Cc1c[nH]c2nccc(Oc3ccc(C[C@H](N)C(=O)N4CCN(C(=O)c5cccnc5)CC4)cc3F)c12 [Example 174, (S)-2-amino-3-(3-fluoro-4-((3-methyl-1H-pyrrolo[2,3-b]pyridin-4-yl)oxy)phenyl)-1-(4-nicotinoylpiperazin-1-yl)propan-1-one]
